Results on 16 compounds are retold here after article PMC10081510 (Journal of medicinal chemistry, 2022).

SMILES strings stand for the structures. Converted amounts (≈) assume the structure as drawn. “Also recorded” adds a separate entry of the source. Some results are limits rather than exact numbers.

The nature of data set [1]: In vivo pharmacokinetic studies. Also noted: species or system CD-1 mice. The conditions noted are these: for clearance / AUC(0-inf) / Vd / Cmax / bioavailability / half-life: male, CD-1, mouse, plasma.
Data set [2] in a line: Clinical observations during mouse PK studies. Format: in vivo. The conditions noted are these: CD-1 mice; for tolerability / clinical signs: 3 mg/kg iv and 10 mg/kg po.
Data set [3] relates to MV4:11. As to the kind of experiment: Cell proliferation assay. It counts as cell-based. The conditions noted are these: GI50,K562/GI50,MV4:11.
For data set [4], the target named is WDR5 (Homo sapiens, UniProt P61964). Nature of the data set: TR-FRET competition assay against MLL1-derived 10-mer-Thr-FAM peptide probe. It counts as binding. For orientation: TR-FRET usually uses a lanthanide donor and a delayed reading to cut background.
Data set [5] deals with K562. Nature of the data set: Cell proliferation assay. It counts as cell-based. The conditions noted are these: Homo sapiens, K562, 120 h, read-out: Cell Proliferation Assays GI50 (nM) K562.
The nature of data set [6]: Kinetic solubility assay. It counts as physicochemical. The conditions noted are these: phosphate-buffered saline, pH 7.4.
Data set [7] in a line: Microsomal intrinsic clearance assay. It counts as in vitro ADME. The conditions noted are these: rat, pooled liver microsomes. Background: Microsomes from liver hold many membrane-bound enzymes, among them those of drug oxidation.
For data set [8], the system named is MV4:11 cancer cells. The conditions noted are these: cited from earlier work.
For data set [9], the system named is MV4:11 mouse xenograft. The conditions noted are these: ip (DDO-2093) and po (DDO-2213) dosing; cited from earlier work.
The test system of data set [10] is mouse models. The conditions noted are these: cited from earlier work.

As usually defined, the clearance is the rate of elimination divided by the concentration. Lower therefore signals a low capacity for elimination. Regarding `COc1cc(CN2CCc3c(cc(Cn4ccn(C)c4=N)cc3-c3ccc(F)cc3C)C2=O)cc(OC)c1` [Compound 1], the oral exposure result in data set [1] (CD-1 mice, 3 mg/kg po) is given as “below the limit of quantitation”. The same compound came in with a clearance in data set [1] (iv, 3 mg/kg) of 78 mL/min/kg. Besides, in data set [2] (3 mg/kg iv, 3 mg/kg), the acute toxicity signs result is on record as “signs of severe acute toxicity; also recorded: lethality”.

Regarding `COc1cc(CN2CCc3c(cc(Cn4cccn4)cc3-c3cn(C)nc3C(F)(F)F)C2=O)cc(OC)c1` [Compound 17, 7-((1H-Pyrazol-1-yl)methyl)-2-(3,5-dimethoxybenzyl)-5-(1-methyl-3-(trifluoromethyl)-1H-pyrazol-4-yl)-3,4-dihydroisoquinolin-1(2H)-one], the “Selectivity K562/MV4:11” value in [3] is over 1.

For `COc1cc(CN2CCc3c(cc(Cn4cccc4)cc3-c3cn(C)nc3C(F)(F)F)C2=O)cc(OC)c1` [Compound 18, 7-((1H-Pyrrol-1-yl)methyl)-2-(3,5-dimethoxybenzyl)-5-(1-methyl-3-(trifluoromethyl)-1H-pyrazol-4-yl)-3,4-dihydroisoquinolin-1(2H)-one], the “Selectivity K562/MV4:11” value in [3] is over 2.

`COc1cc(CN2CCc3c(cc(Cn4cnnc4)cc3-c3cn(C)nc3C(F)(F)F)C2=O)cc(OC)c1` [Compound 19, 7-((4H-1,2,4-Triazol-4-yl)methyl)-2-(3,5-dimethoxybenzyl)-5-(1-methyl-3-(trifluoromethyl)-1H-pyrazol-4-yl)-3,4-dihydroisoquinolin-1(2H)-one]: the “Selectivity K562/MV4:11” value in [3] was over 2.

The term Ki denotes a dissociation constant, usually derived from enzyme kinetics or from competition with a known ligand. The low end stands for higher affinity, the high end for lower affinity. Take `CCc1nccn1Cc1cc2c(c(-c3cn(C)nc3C(F)(F)F)c1)CCN(Cc1cc(OC)cc(OC)c1)C2=O` [Compound 21, 2-(3,5-Dimethoxybenzyl)-7-((2-ethyl-1H-imidazol-1-yl)methyl)-5-(1-methyl-3-(trifluoromethyl)-1H-pyrazol-4-yl)-3,4-dihydroisoquinolin-1(2H)-one]: in data set [4], affinity was put at a Ki of 0.022 ± 0.001 nM.

Turning to `COc1cc(CN2CCc3c(cc(Cn4ccnc4C(C)C)cc3-c3cn(C)nc3C(F)(F)F)C2=O)cc(OC)c1` [Compound 22, 2-(3,5-Dimethoxybenzyl)-7-((2-isopropyl-1H-imidazol-1-yl)methyl)-5-(1-methyl-3-(trifluoromethyl)-1H-pyrazol-4-yl)-3,4-dihydroisoquinolin-1(2H)-one], the GI50 in data set [5] is 16000 ± 3100 nM.

On to `COc1cc(CN2CCc3c(cc(Cn4ccnc4C(F)F)cc3-c3cn(C)nc3C(F)(F)F)C2=O)cc(OC)c1` [Compound 24, 7-((2-(Difluoromethyl)-1H-imidazol-1-yl)methyl)-2-(3,5-dimethoxybenzyl)-5-(1-methyl-3-(trifluoromethyl)-1H-pyrazol-4-yl)-3,4-dihydroisoquinolin-1(2H)-one], for which the “Selectivity K562/MV4:11” value in data set [3] was over 3.

With `CCn1cc(-c2cc(Cn3ccnc3C)cc3c2CCN([C@@H](C)c2cc(OC)ccn2)C3=O)c(C(F)(F)F)n1` [Compound 34, (S)-5-(1-Ethyl-3-(trifluoromethyl)-1H-pyrazol-4-yl)-2-(1-(4-methoxypyridin-2-yl)ethyl)-7-((2-methyl-1H-imidazol-1-yl)methyl)-3,4-dihydroisoquinolin-1(2H)-one], the clearance in data set [1] (iv, 3 mg/kg) is 118 mL/min/kg. The “tolerability / clinical signs” value in [2] was “behaved normally during the study and showed no adverse effects”.

The kinetic solubility is the concentration staying in solution when a stock, usually in DMSO, is diluted into the medium. What is called AUC(0-inf) is the area under the concentration-time curve extrapolated to infinity. As usually defined, the Vd is a proportionality between amount in the body and measured concentration, not a real space. The Cmax is the peak of the concentration-time curve. What is called bioavailability is the share of a dose that reaches the circulation, judged against a reference dose that is usually intravenous. As usually defined, the half-life is the time needed for the level to fall by half in the phase considered. Consider `CCn1cc(-c2cc(Cn3ccnc3C)cc3c2CCN([C@H](c2cc(OC)ccn2)C2CC2)C3=O)c(C(F)(F)F)n1` [Compound 36, (S)-2-(Cyclopropyl(4-methoxypyridin-2-yl)methyl)-5-(1-ethyl-3-(trifluoromethyl)-1H-pyrazol-4-yl)-7-((2-methyl-1H-imidazol-1-yl)methyl)-3,4-dihydroisoquinolin-1(2H)-one], for which the Ki in data set [4] was under 0.02 nM. The GI50 in [5] was 2600 ± 1500 nM. The same compound came in with a kinetic solubility at 1 h in [6] of 65 µM (≈ 36.7 µg/mL). Moreover, in data set [1] (iv, 3 mg/kg), the area under the curve AUC(0-inf) amounted to 1240 ng·h/mL, the Vd was 1.6 L/kg and the clearance came out at 41 mL/min/kg. For the same compound, in [1] (po, 10 mg/kg), the AUC(0-inf) stood at 508 ng·h/mL, the Cmax stood at 652 ng/mL, the bioavailability is 12% and the half-life was 1.4 h. The “tolerability / clinical signs” value in data set [2] is “behaved normally during the study and showed no adverse effects”.

With `CCn1cc(-c2cc(Cn3ccnc3C)cc3c2CCN([C@H](c2cc(C)ccn2)C2CC2)C3=O)c(C(F)(F)F)n1` [Compound 37, (S)-2-(Cyclopropyl(4-methylpyridin-2-yl)methyl)-5-(1-ethyl-3-(trifluoromethyl)-1H-pyrazol-4-yl)-7-((2-methyl-1H-imidazol-1-yl)methyl)-3,4-dihydroisoquinolin-1(2H)-one], in data set [1] (iv, 3 mg/kg), the clearance was determined as 25 mL/min/kg. The “tolerability / clinical signs” value in [2] was “behaved normally during the study and showed no adverse effects”.

One may read the microsomal CLint as the rate of metabolic loss divided by the concentration. `CCn1cc(-c2cc(Cn3ccnc3)cc3c2CCN([C@@H](C)c2cc(OC)ccn2)C3=O)c(C(F)(F)F)n1` [Compound 38, (S)-7-((1H-Imidazol-1-yl)methyl)-5-(1-ethyl-3-(trifluoromethyl)-1H-pyrazol-4-yl)-2-(1-(4-methoxypyridin-2-yl)ethyl)-3,4-dihydroisoquinolin-1(2H)-one]: the Ki in data set [4] was under 0.02 nM. For the same compound, in data set [3], the “Selectivity K562/MV4:11” value amounted to 200. Moreover, in data set [5], the GI50 was found to be 1900 ± 1800 nM. Also, the kinetic solubility at 1 h in [6] stood at 86 µM (≈ 45.1 µg/mL). In data set [7], the half-life at 1 μM was 0.367 h and the microsomal CLint at 1 μM is 31 µL/min/mg. Moreover, in data set [1] (iv, 3 mg/kg), the AUC(0-inf) amounted to 707 ng·h/mL, the Vd is 2.3 L/kg and the clearance was 76 mL/min/kg. In addition, in data set [1] (oral, 10 mg/kg), the bioavailability came to 73%. In [1] (po, 10 mg/kg), this compound had an AUC(0-inf) of 1710 ng·h/mL, a peak concentration (Cmax) of 2010 ng/mL and a half-life of 1.2 h. In data set [2], the “tolerability / clinical signs” value is “behaved normally during the study and showed no adverse effects”.

For `CCn1cc(-c2cc(Cn3ccnc3)cc3c2CCN([C@H](c2cc(OC)ccn2)C2CC2)C3=O)c(C(F)(F)F)n1` [Compound 40, (S)-7-((1H-Imidazol-1-yl)methyl)-2-(cyclopropyl(4-methoxypyridin-2-yl)methyl)-5-(1-ethyl-3-(trifluoromethyl)-1H-pyrazol-4-yl)-3,4-dihydroisoquinolin-1(2H)-one], the “tolerability / clinical signs” value in data set [2] was “behaved normally during the study and showed no adverse effects”.

In the case of `CCn1cc(-c2cc(Cn3ccnc3)cc3c2CCN([C@H](c2cc(C)ccn2)C2CC2)C3=O)c(C(F)(F)F)n1` [Compound 41, (S)-7-((1H-Imidazol-1-yl)methyl)-2-(cyclopropyl(4-methylpyridin-2-yl)methyl)-5-(1-ethyl-3-(trifluoromethyl)-1H-pyrazol-4-yl)-3,4-dihydroisoquinolin-1(2H)-one], the Ki in data set [4] was under 0.02 nM. In addition, in [3], the “Selectivity K562/MV4:11” value amounted to 290. The GI50 in [5] came to 3700 ± 3100 nM. The kinetic solubility at 1 h in data set [6] stood at 60 µM (≈ 32.1 µg/mL). Further, in [1] (iv, 3 mg/kg), the AUC(0-inf) worked out at 1950 ng·h/mL, the Vd amounted to 1.6 L/kg and the clearance is 26 mL/min/kg. This compound also yielded a bioavailability in data set [1] (oral, 10 mg/kg) of 61%. In addition, in data set [1] (po, 10 mg/kg), the AUC(0-inf) amounted to 3980 ng·h/mL, the Cmax was found to be 2080 ng/mL and the half-life is 1.3 h. The “tolerability / clinical signs” value in data set [2] is “behaved normally during the study and showed no adverse effects”.

Consider `Cc1c(F)c(N)cc(C(=O)Nc2cc(-n3cc(C(=O)NCCCN4CCOCC4)nn3)ccc2N2CCN(C)CC2)c1Cl` [DDO-2093], for which the GI50 in [8] was about 10000 nM. Besides, the “in vivo tumor growth inhibition” value in [9] is reported as “marginal in vivo tumor growth inhibition”.

Consider `CN1CCN(c2cc(F)c(-c3ccc(NC(=O)N(C)C)cc3)cc2Nc2ncnc(Cl)c2N)CC1` [DDO-2213], for which the GI50 in data set [8] was about 10000 nM. Further, the “in vivo tumor growth inhibition” value in [9] is given as “marginal in vivo tumor growth inhibition”.

Regarding `Cc1ncsc1-c1ccc([C@H](C)NC(=O)[C@@H]2C[C@@H](O)CN2C(=O)[C@@H](NC(=O)CNC(=O)c2ccc(F)c(-c3ccc(N4C[C@@H](C)N(C)[C@@H](C)C4)c(NC(=O)c4c[nH]c(=O)cc4C(F)(F)F)c3)c2)C(C)(C)C)cc1` [MS67], in [10], the “in vivo tumor growth inhibition” value was “demonstrated in vivo tumor growth inhibition”.
